Data: patent US10364314B2, “Compound, resin, material for forming underlayer film for lithography, composition for forming underlayer film for lithography, underlayer film for lithography, resist pattern forming method, circuit pattern forming method, and purification method” (Mitsubishi Gas Chemical Company, Inc., priority 2015, dated 2019)

Assay: Solubility in PGME and PGMEA at 23° C.
Assay type: physicochemical
Description: The amount of each compound dissolved in 1-methoxy-2-propanol (PGME) and propylene glycol monomethyl ether acetate (PGMEA) was measured at 23° C., and the results were evaluated according to the following criteria.
Evaluation A: 10% by mass or more
Evaluation B: 5% by mass or more and less than 10% by mass
Evaluation C: less than 5% by mass

Structure (SMILES) | Evaluation of the solubility in PGME and PGMEA | solubility in PGME and PGMEA
Oc1ccc2c3c(ccc2c1)Oc1ccc2cc(O)ccc2c1C3c1c[nH]cn1 [IMX-2] | A (10% by mass or more) | ≥ 10 % by mass
CCCCc1nc(C2c3c(ccc4cc(O)ccc34)Oc3ccc4cc(O)ccc4c32)c(Cl)[nH]1 [IMX-5] | A (10% by mass or more) | ≥ 10 % by mass
Oc1ccc2c3c(ccc2c1)Oc1ccc2cc(O)ccc2c1C3c1c[nH]c(-c2ccccc2)n1 [IMX-4] | B (5% by mass or more and less than 10% by mass) | ≥ 5 % by mass
Oc1ccc2ccc3c(c2c1)C(c1c[nH]cn1)c1c(ccc2ccc(O)cc12)O3 [IMX-1] | A (10% by mass or more) | ≥ 10 % by mass
Oc1ccc(-c2ccc(O)c(C(c3c[nH]cn3)c3cc(-c4ccc(O)cc4)ccc3O)c2)cc1 [IMX-3] | A (10% by mass or more) | ≥ 10 % by mass
